Patent US12479974B2, “Composition and method for microbial control for use with polymers” (MICROBAN PRODUCTS COMPANY, priority 2022, dated 2025)
≈ marks a conversion by molar mass, not a printed value.

Columns and labels:
[1] = tested on: Escherichia coli (gram-negative bacteria); experiment: Antimicrobial efficacy of polymer samples, ISO22196 test method
[2] = tested on: Staphylococcus aureus (gram-positive bacteria); experiment: as above; details: GBA alone at more than 4500 ppm in TPU, Table 3 (S. aureus)
Staphylococcus aureus = experiment: Minimum inhibitory concentration (MIC); assay type: cell-based; details: against Staphylococcus aureus
Escherichia coli = experiment: Minimum inhibitory concentration (MIC); assay type: cell-based; details: against Escherichia coli

Structure (SMILES) | efficacy against E. coli ([1]; 2500 ppm GBA in TPU) | log reduction ([1]; 4500 ppm GBA alone in TPU, E. coli) | log reduction (consistent antimicrobial efficacy) ([1]; 5250 ppm level in TPU, E. coli) | antimicrobial efficacy [2] | MIC (Staphylococcus aureus) | MIC (Escherichia coli)
O=C(O)c1ccccc1 [GBA, benzoic acid] | no efficacy | less than 1 | > 1 | did not exhibit antimicrobial efficacy | – | –
OCCCc1ccccc1 [3-phenylpropanol] | – | – | – | – | 4000 µg/mL (≈ 29.4 mM) | 3000 to 4000 µg/mL (≈ 22 to 29.4 mM)
